# Source: paper PMC6332289, “Anti-Oxidant, Anti-Aging, and Anti-Melanogenic Properties of the Essential Oils from Two Varieties of Alpinia zerumbet” (Molecules, 2015)
# Target: T1, Clostridium histolyticum collagenase (ChC)
# T1 construct: gene colG; commercial collagenase from Sigma-Aldrich
# Assay: FALGPA hydrolysis, absorbance at […] nm
# Type: biochemical, Hathewaya histolytica
# Conditions: 50 mM tricine, 400 mM NaCl, 10 mM CaCl2, pH 7.5; 0.8 mM FALGPA; 15 min preincubation
smiles,measurement,value
CC1(C)CC[C@]2(C(=O)O)CC[C@]3(C)C(=CC[C@@H]4[C@@]5(C)CC[C@H](O)C(C)(C)[C@@H]5CC[C@]43C)[C@@H]2C1 [oleanolic acid],IC50,21 ± 0.2 µg/mL
